Assay results reported in PMC7181051, “Probing the Protein-Protein Interaction between the ATRXADD Domain and the Histone H3 Tail” (Molecules, 2020).
Where two headings read alike, the source gives them in different places. Where a SMILES comes first, the peptide text is derived from it. [ ]: non-standard residue; d: D form. Lys(Me3) = C[N+](C)(C)CCCC[C@H](N)C(=O)O

Molecular target: T1, ATRXADD (Homo sapiens, UniProt P46100)
T1 construct: The pGEX-GP-2-ATRX ADD plasmid (Addgene plasmid #59698) [17] was transformed into BL21 cells for expression and purification; GST (N, cleaved yes); peptides GenScript #59698; host or cells: E. coli BL21
T1 sequence (P46100 159-296 limits assumed): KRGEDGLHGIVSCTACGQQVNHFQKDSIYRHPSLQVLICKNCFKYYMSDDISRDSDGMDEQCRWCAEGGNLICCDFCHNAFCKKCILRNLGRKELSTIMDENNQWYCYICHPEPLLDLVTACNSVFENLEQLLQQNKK
Test: Fluorescence polarization (FP) displacement assay
Assay type: binding
Conditions: for disruption of the H3:ATRXADD PPI in the FP assay, in words: truncated and modified H3 peptides

[1] = disruption of H3_1-15K9me3-FAM (0.75 µM):ATRXADD (5 µM) PPI, PBS, highest concentration tested 100 µM, ND = no displacement, read-out: FP Assay IC50

IC50 [1] [µM] | Compound | disruption of the H3:ATRXADD PPI in the FP assay, in words | IC50 [µM]
> 100 | C[C@H](NC(=O)[C@@H](NC(=O)[C@H](CCC(N)=O)NC(=O)[C@H](CCCC[N+](C)(C)C)NC(=O)[C@@H](N)[C@@H](C)O)[C@@H](C)O)C(=O)N[C@@H](CCCNC(=N)N)C(=O)N[C@@H](CCCC[N+](C)(C)C)C(=O)N[C@@H](CO)C(=O)O [H3_3-10K4me3K9me3] (H-T[Lys(Me3)]QTAR[Lys(Me3)]S-OH; N-terminus and C-terminus assumed) | – | –
> 100 | C[C@@H](O)[C@H](N)C(=O)N[C@@H](CCCCN)C(=O)N[C@@H](CCC(N)=O)C(=O)O [Peptide H3_3-5] (H-Thr-Lys-Gln-OH; N-terminus and C-terminus assumed) | inactive | –
> 100 | C[C@H](NC(=O)[C@@H](NC(=O)[C@H](CCC(N)=O)NC(=O)[C@H](CCCCN)NC(=O)[C@@H](N)[C@@H](C)O)[C@@H](C)O)C(=O)N[C@@H](CCCNC(=N)N)C(=O)N[C@@H](CCCC[N+](C)(C)C)C(=O)N[C@@H](CO)C(=O)N[C@H](C(=O)O)[C@@H](C)O [Peptide H3_3-11K9me3] (H-TKQTAR[Lys(Me3)]ST-OH; N-terminus and C-terminus assumed) | completely abolished activity | –

Continued, compound first:

Compound | IC50 [1] [µM] | disruption of the H3:ATRXADD PPI in the FP assay, in words | IC50 [µM]
C[C@H](N)C(=O)N[C@@H](CCCNC(=N)N)C(=O)N[C@H](C(=O)N[C@@H](CCCC[N+](C)(C)C)C(=O)N[C@@H](CCC(N)=O)C(=O)N[C@H](C(=O)N[C@@H](C)C(=O)N[C@@H](CCCNC(=N)N)C(=O)N[C@@H](CCCC[N+](C)(C)C)C(=O)N[C@@H](CO)C(=O)N[C@H](C(=O)O)[C@@H](C)O)[C@@H](C)O)[C@@H](C)O [H3_1-11K4me3K9me3] | ≥ 100 | significantly reduced the activity | –
C[C@H](N)C(=O)N[C@@H](CCCNC(=N)N)C(=O)N[C@H](C(=O)N[C@@H](CCCC[N+](C)(C)C)C(=O)N[C@@H](CCC(N)=O)C(=O)N[C@H](C(=O)N[C@@H](C)C(=O)O)[C@@H](C)O)[C@@H](C)O [Peptide H3_1-7K4me3] (H-ART[Lys(Me3)]QTA-OH) | – | – | > 100
C[C@@H](O)[C@H](NC(=O)[C@H](CCC(N)=O)NC(=O)[C@H](CCCCN)NC(=O)[C@@H](NC(=O)[C@@H](N)CCCNC(=N)N)[C@@H](C)O)C(=O)O [Peptide H3_2-6] (H-RTKQT-OH; N-terminus and C-terminus assumed) | – | inactive | > 100
C[C@H](NC(=O)[C@@H](NC(=O)[C@H](CCC(N)=O)NC(=O)[C@H](CCCCN)NC(=O)[C@@H](N)[C@@H](C)O)[C@@H](C)O)C(=O)N[C@@H](CCCNC(=N)N)C(=O)O [Peptide H3_3-8] (H-TKQTAR-OH; N-terminus and C-terminus assumed) | – | inactive | > 100
C[C@H](N)C(=O)N[C@@H](CCCNC(=N)N)C(=O)N[C@@H](CCCC[N+](C)(C)C)C(=O)N[C@@H](CO)C(=O)N[C@H](C(=O)O)[C@@H](C)O [Peptide H3_7-11K9me3] (H-AR[Lys(Me3)]ST-OH; N-terminus and C-terminus assumed) | – | inactive | > 100
